Tested on: LCMV
Design: species or system BALB/c mice
Conditions: mouse, in vivo

Row | SMILES | Viral copies in the liver | Body weight decrease of LCMV-challenged mice
1 | O=C(/C=C/c1ccc(O)c(O)c1/C=C/c1ccc(O)c(O)c1)O[C@H](Cc1ccc(O)c(O)c1)C(=O)O [Salvianolic acid A, salvianolic acid A] | significantly reduced | –
2 | O=C1O[C@H]2[C@@H]3OC(=O)c4cc(O)c(O)c(O)c4-c4c(O)c(O)c5oc(=O)c6c(c(O)c(O)c7oc(=O)c4c5c76)-c4c(cc(O)c(O)c4O)C(=O)OC[C@H]3OC(O)[C@@H]2OC(=O)c2cc(O)c(O)c(O)c2-c2c1cc(O)c(O)c2O (mixture of isomers) [Punicalagin] | no effect | –
3 | O=C(O)C[C@@H]1C(=O)O[C@H]2[C@H](OC(=O)c3cc(O)c(O)c(O)c3)[C@@H](OC(=O)c3cc(O)c(O)c4c3[C@H]1[C@H](O)C(=O)O4)[C@H](OC(=O)c1cc(O)c(O)c(O)c1)O[C@@H]2COC(=O)c1cc(O)c(O)c(O)c1 [Chebullinic acid, chebulinic acid] | no effect | –
4 | NC(=O)c1nc(F)c[nH]c1=O [T-705, favipiravir, reference compound] | significantly reduced | decrease was halted
